Measurements taken from PubChem BioAssay (NCI).
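Tested at 5 concentrations; 48 h exposure; 96-well plates; endpoints linearly interpolated, else capped at highest concentration. Abbreviation: GI50, concentration required for 50% inhibition of growth. TGI marks complete inhibition of growth.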

Columns and labels:
Experiment in all cases: NCI tumour cell line growth inhibition, 48 h
CCRF-CEM leukemia = system: CCRF-CEM leukemia
HOP-92 NSCLC = system: HOP-92 NSCLC
MCF7 breast = system: MCF7 breast
MDA-MB-231 breast = system: MDA-MB-231 breast
MDA-MB-435 = system: MDA-MB-435
MDA-N = system: MDA-N
NCI-H522 lung = system: NCI-H522 lung
OVCAR-4 ovarian = system: OVCAR-4 ovarian
SF-539 CNS = system: SF-539 CNS
SR leukemia = system: SR leukemia
786-0 renal = system: 786-0 renal
M19-MEL melanoma = system: M19-MEL melanoma

**Q.** For `C=CC[N+]12CN3CN(CN(C3)C1)C2`, which TGI (CCRF-CEM leukemia) is on record?
**A.** Its TGI is 30.3 µM.

**Q.** And the TGI (HOP-92 NSCLC)?
**A.** Its TGI is 46.9 µM.

**Q.** And the TGI (MCF7 breast)?
**A.** The TGI was over 100 µM.

**Q.** What about the TGI (MDA-MB-231 breast) of the same compound?
**A.** Its TGI is 91.3 µM.

**Q.** What about the TGI (MDA-MB-435) of the same compound?
**A.** The TGI was 37.4 µM.

**Q.** What about the TGI (MDA-N) of the same compound?
**A.** The TGI was 35.5 µM.

**Q.** And the TGI (NCI-H522 lung)?
**A.** The TGI was 34.9 µM.

**Q.** And the TGI (OVCAR-4 ovarian)?
**A.** Its TGI is 52.9 µM.

**Q.** And the TGI (SF-539 CNS)?
**A.** The TGI was 40.6 µM.

**Q.** `O=c1ccc2nc(-c3ccccc3)nn(-c3ccccn3)c-2c1` was tested. Which GI50 (HOP-92 NSCLC) did it give?
**A.** Its GI50 is 1250 nM.

**Q.** What about the TGI (HOP-92 NSCLC) of the same compound?
**A.** The TGI was 3.31 µM.

**Q.** And the GI50 (MCF7 breast)?
**A.** The GI50 was 2130 nM.

**Q.** And the TGI (MCF7 breast)?
**A.** The TGI was 5.88 µM.

**Q.** And the GI50 (MDA-MB-231 breast)?
**A.** The GI50 was 9.87 µM.

**Q.** And the TGI (MDA-MB-231 breast)?
**A.** The TGI was 29.5 µM.

**Q.** What about the GI50 (MDA-MB-435) of the same compound?
**A.** The GI50 was 15.4 µM.

**Q.** What about the TGI (MDA-MB-435) of the same compound?
**A.** The TGI was 33.9 µM.

**Q.** And the GI50 (NCI-H522 lung)?
**A.** Its GI50 is 1510 nM.

**Q.** And the TGI (NCI-H522 lung)?
**A.** The TGI was 2.97 µM.

**Q.** And the GI50 (OVCAR-4 ovarian)?
**A.** The GI50 was 1670 nM.

**Q.** And the TGI (OVCAR-4 ovarian)?
**A.** The TGI was 3.19 µM.

**Q.** What about the GI50 (SF-539 CNS) of the same compound?
**A.** Its GI50 is 16.2 µM.

**Q.** And the TGI (SF-539 CNS)?
**A.** Its TGI is 30.8 µM.

**Q.** What about the GI50 (SR leukemia) of the same compound?
**A.** The GI50 was 2970 nM.

**Q.** And the TGI (SR leukemia)?
**A.** Its TGI is 18.5 µM.

**Q.** Which results are given for `O=C1c2ccccc2C(=O)c2c(Nc3ccc4c5c(cccc35)C(=O)c3ccccc3-4)cccc21`?
**A.** TGI (786-0 renal): > 100 µM; TGI (HOP-92 NSCLC): > 100 µM; TGI (MDA-MB-231 breast): > 100 µM; TGI (MDA-MB-435): > 100 µM; TGI (MDA-N): > 100 µM; TGI (NCI-H522 lung): > 100 µM; TGI (OVCAR-4 ovarian): > 100 µM; TGI (SR leukemia): > 100 µM

**Q.** Which TGI (786-0 renal) does the source give for `N#CCCCC[N+]12CN3CN(CN(C3)C1)C2` here?
**A.** Its TGI is over 100 µM.

**Q.** What about the TGI (CCRF-CEM leukemia) of the same compound?
**A.** The TGI was over 100 µM.

**Q.** What about the TGI (HOP-92 NSCLC) of the same compound?
**A.** The TGI was over 100 µM.

**Q.** And the TGI (MCF7 breast)?
**A.** Its TGI is over 100 µM.

**Q.** What about the TGI (MDA-MB-231 breast) of the same compound?
**A.** The TGI was over 100 µM.

**Q.** And the TGI (MDA-MB-435)?
**A.** Its TGI is over 100 µM.

**Q.** And the TGI (MDA-N)?
**A.** The TGI was over 100 µM.

**Q.** What about the TGI (NCI-H522 lung) of the same compound?
**A.** The TGI was over 100 µM.

**Q.** What about the TGI (OVCAR-4 ovarian) of the same compound?
**A.** Its TGI is over 100 µM.

**Q.** And the TGI (SF-539 CNS)?
**A.** The TGI was 54 µM.

**Q.** What about the TGI (SR leukemia) of the same compound?
**A.** The TGI was over 100 µM.

**Q.** What does the source list for `CC(C)c1cc(CN(C)C)c(O)c(C(C)(C)C)c1`?
**A.** TGI (786-0 renal): 32.5 µM; TGI (CCRF-CEM leukemia): 30 µM; TGI (MCF7 breast): 30.1 µM; TGI (MDA-MB-231 breast): > 100 µM; TGI (MDA-MB-435): > 100 µM; TGI (MDA-N): 73.3 µM; TGI (NCI-H522 lung): 38.1 µM; TGI (OVCAR-4 ovarian): 99.1 µM

**Q.** How did the TGI (CCRF-CEM leukemia) turn out when `O=C(CNc1cccc([N+](=O)[O-])c1)Nn1c(-c2ccccc2)nc2ccccc2c1=O` was run?
**A.** The TGI was 1.15 µM.

**Q.** What about the TGI (MCF7 breast) of the same compound?
**A.** The TGI was 1.71 µM.

**Q.** And the TGI (MDA-MB-231 breast)?
**A.** The TGI was 2.9 µM.

**Q.** And the TGI (SF-539 CNS)?
**A.** The TGI was 4.7 µM.

**Q.** Which TGI (786-0 renal) does the source give for `NC(=O)C(N)=O` here?
**A.** The TGI was over 100 µM.

**Q.** And the TGI (CCRF-CEM leukemia)?
**A.** The TGI was over 100 µM.

**Q.** And the TGI (HOP-92 NSCLC)?
**A.** Its TGI is over 100 µM.

**Q.** What about the TGI (M19-MEL melanoma) of the same compound?
**A.** Its TGI is over 100 µM.

**Q.** What about the TGI (NCI-H522 lung) of the same compound?
**A.** Its TGI is over 100 µM.

**Q.** What about the TGI (SF-539 CNS) of the same compound?
**A.** Its TGI is over 100 µM.

**Q.** What about the TGI (SR leukemia) of the same compound?
**A.** The TGI was over 100 µM.

**Q.** For `Nc1nc(N)c2c(n1)NC(=O)c1c(c3ccccc3n1Cc1ccc(Cl)cc1)C2`, which TGI (CCRF-CEM leukemia) is on record?
**A.** Its TGI is 42.8 µM.

**Q.** What about the TGI (HOP-92 NSCLC) of the same compound?
**A.** Its TGI is 20.4 µM.

**Q.** And the TGI (MCF7 breast)?
**A.** The TGI was 88.5 µM.

**Q.** And the TGI (MDA-MB-435)?
**A.** Its TGI is 91.1 µM.

**Q.** And the TGI (MDA-N)?
**A.** Its TGI is 34.5 µM.

**Q.** And the TGI (OVCAR-4 ovarian)?
**A.** The TGI was 49.9 µM.

**Q.** And the TGI (SF-539 CNS)?
**A.** Its TGI is 44.8 µM.

**Q.** `N#CN=C(N)NC(=O)/C=C/C=C/c1ccc(Cl)cc1` was tested. Which TGI (786-0 renal) did it give?
**A.** The TGI was over 100 µM.

**Q.** And the TGI (CCRF-CEM leukemia)?
**A.** The TGI was over 100 µM.

**Q.** And the TGI (HOP-92 NSCLC)?
**A.** The TGI was over 100 µM.

**Q.** And the TGI (M19-MEL melanoma)?
**A.** The TGI was over 100 µM.

**Q.** And the TGI (NCI-H522 lung)?
**A.** Its TGI is over 100 µM.

**Q.** And the TGI (OVCAR-4 ovarian)?
**A.** The TGI was over 100 µM.

**Q.** What about the TGI (SF-539 CNS) of the same compound?
**A.** The TGI was 50.4 µM.

**Q.** And the TGI (SR leukemia)?
**A.** The TGI was over 100 µM.

**Q.** Which TGI (CCRF-CEM leukemia) does the source give for `C#CCOc1c(C(=O)OCC)c(=O)n(C)c2ccccc12` here?
**A.** The TGI was over 100 µM.

**Q.** What about the TGI (HOP-92 NSCLC) of the same compound?
**A.** Its TGI is over 100 µM.

**Q.** What about the TGI (M19-MEL melanoma) of the same compound?
**A.** Its TGI is over 100 µM.

**Q.** And the TGI (NCI-H522 lung)?
**A.** Its TGI is over 100 µM.

**Q.** What about the TGI (SF-539 CNS) of the same compound?
**A.** The TGI was over 100 µM.

**Q.** Which TGI (CCRF-CEM leukemia) does the source give for `CC(C)(C)N1C(C(=O)c2ccccc2)C1c1ccccc1` (stereo unspecified) here?
**A.** The TGI was over 100 µM.

**Q.** What about the TGI (HOP-92 NSCLC) of the same compound?
**A.** The TGI was over 100 µM.

**Q.** What about the TGI (M19-MEL melanoma) of the same compound?
**A.** Its TGI is over 100 µM.

**Q.** What about the TGI (NCI-H522 lung) of the same compound?
**A.** The TGI was over 100 µM.

**Q.** What about the TGI (OVCAR-4 ovarian) of the same compound?
**A.** Its TGI is over 100 µM.

**Q.** And the TGI (SF-539 CNS)?
**A.** Its TGI is over 100 µM.

**Q.** How did the TGI (HOP-92 NSCLC) turn out when `CCOC(=O)C12CCC(=O)C=C1[C@@H](C)C(=O)CC2` (stereo partly specified) was run?
**A.** Its TGI is over 100 µM.

**Q.** And the TGI (M19-MEL melanoma)?
**A.** Its TGI is over 100 µM.

**Q.** And the TGI (SR leukemia)?
**A.** Its TGI is over 100 µM.

**Q.** `COc1ccc(C[C@H](N)C(=O)NC2C(CO)OC(n3cnc4c(N(C)C)ncnc43)C2O)cc1` (stereo partly specified) was tested. Which TGI (CCRF-CEM leukemia) did it give?
**A.** Its TGI is 0.845 µM.

**Q.** And the TGI (HOP-92 NSCLC)?
**A.** Its TGI is 0.591 µM.

**Q.** And the TGI (M19-MEL melanoma)?
**A.** Its TGI is 1.54 µM.

**Q.** What about the TGI (OVCAR-4 ovarian) of the same compound?
**A.** The TGI was 2.1 µM.

**Q.** And the TGI (SR leukemia)?
**A.** The TGI was 0.595 µM.

**Q.** Which results are given for `COC(=O)Nc1nc2cc(OC)c(OC)cc2c(=O)[nH]1`?
**A.** TGI (786-0 renal): > 100 µM; TGI (CCRF-CEM leukemia): > 100 µM; TGI (MCF7 breast): > 100 µM; TGI (MDA-MB-231 breast): > 100 µM; TGI (MDA-N): 7.99 µM; TGI (NCI-H522 lung): 6.51 µM; TGI (OVCAR-4 ovarian): > 100 µM; TGI (SF-539 CNS): > 100 µM; TGI (SR leukemia): > 100 µM
